Laboratory results: PubChem BioAssay (NCI)
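Five compound concentrations were applied to cells in 96-well plates for 48 hours; endpoints were derived by simple linear interpolation of the resulting dose-response curve. At the GI50, growth is halved. Definition used: TGI = concentration required for complete inhibition of growth.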

Experiments:
Test in all cases: NCI-60 cell line screen, 48 h
[1] = test system: OVCAR-3 ovarian
[2] = test system: MALME-3M melanoma
[3] = test system: U251 CNS
[4] = test system: A549 NSCLC
[5] = test system: HOP-62 NSCLC
[6] = test system: 786-0 renal
[7] = test system: SK-OV-3 ovarian
[8] = test system: RPMI-8226 leukemia
[9] = test system: SNB-75 CNS
[10] = test system: OVCAR-4 ovarian
[11] = test system: M14 melanoma
[12] = test system: A498 renal
[13] = test system: SF-295 CNS
[14] = test system: SF-539 CNS
[15] = test system: NCI-H23 lung
[16] = test system: SNB-19 CNS
[17] = test system: NCI-H522 lung
[18] = test system: IGROV1 ovarian
[19] = test system: BT-549 breast
[20] = test system: COLO 205 colon
[21] = test system: TK-10 renal
[22] = test system: MDA-MB-231 breast
[23] = test system: NCI-H460 lung
[24] = test system: SN12C renal
[25] = test system: HOP-92 NSCLC
[26] = test system: OVCAR-8 ovarian
[27] = test system: MCF7 breast
[28] = test system: DU-145 prostate
[29] = test system: SR leukemia
[30] = test system: CAKI-1 renal
[31] = test system: OVCAR-5 ovarian
[32] = test system: LOX IMVI melanoma
[33] = test system: NCI/ADR-RES ovarian
[34] = test system: HCT-15 colon
[35] = test system: KM12 colon
[36] = test system: UACC-62 melanoma
[37] = test system: HL-60(TB) leukemia
[38] = test system: HCC-2998 colon
[39] = test system: MOLT-4 leukemia
[40] = test system: K-562 leukemia
[41] = test system: UO-31 renal
[42] = test system: SK-MEL-5 melanoma
[43] = test system: NCI-H226 lung
[44] = test system: UACC-257 melanoma
[45] = test system: SF-268 CNS
[46] = test system: HT29 colon
[47] = test system: SW-620 colon
[48] = test system: SK-MEL-28 melanoma
[49] = test system: MDA-MB-435
[50] = test system: T-47D breast
[51] = test system: RXF 393 renal
[52] = test system: HS 578T breast
[53] = test system: CCRF-CEM leukemia
[54] = test system: ACHN renal
[55] = test system: HCT-116 colon
[56] = test system: EKVX NSCLC
[57] = test system: PC-3 prostate
[58] = test system: SK-MEL-2 melanoma

COc1cc(/C=C/C(=O)Nc2ccc3c(c2)/C(=C\c2cccn2C)C(=O)N3)cc(OC)c1OC
GI50 [1]: 5.5 µM | TGI [1]: 22.3 µM | GI50 [2]: 7.34 µM | TGI [2]: 27 µM | GI50 [3]: 3.41 µM | TGI [3]: 20 µM | GI50 [4]: 4.94 µM | TGI [4]: > 100 µM | GI50 [5]: 3.71 µM | TGI [5]: 32 µM | GI50 [6]: 8.69 µM | TGI [6]: 98.9 µM | GI50 [7]: 8.35 µM | TGI [7]: 58.8 µM | GI50 [8]: 1.69 µM | TGI [8]: 4.04 µM | GI50 [9]: 2.15 µM | TGI [9]: 18.5 µM | GI50 [10]: 4.43 µM | TGI [10]: > 100 µM | GI50 [11]: 6.7 µM | TGI [11]: 45.7 µM | GI50 [12]: 2.65 µM | TGI [12]: 17.6 µM | GI50 [13]: 5.15 µM | TGI [13]: 22 µM | GI50 [14]: 5.15 µM | TGI [14]: 19.8 µM | GI50 [15]: 5.01 µM | TGI [15]: 27.2 µM | GI50 [16]: 3.89 µM | TGI [16]: > 100 µM | GI50 [17]: 2.41 µM | TGI [17]: 11.7 µM | GI50 [18]: 9.12 µM | TGI [18]: 70.9 µM | GI50 [19]: 6.33 µM | TGI [19]: 24.9 µM | GI50 [20]: 3.51 µM | TGI [20]: 14.2 µM | GI50 [21]: 3.68 µM | TGI [21]: 18.1 µM | GI50 [22]: 2.3 µM | TGI [22]: 17.8 µM | GI50 [23]: 4.52 µM | TGI [23]: 76.8 µM | GI50 [24]: 3.17 µM | TGI [24]: 59.8 µM | GI50 [25]: 1.54 µM | TGI [25]: 8.46 µM | GI50 [26]: 3.75 µM | TGI [26]: > 100 µM | GI50 [27]: 1.15 µM | TGI [27]: 6.7 µM | GI50 [28]: 7.9 µM | TGI [28]: > 100 µM | GI50 [29]: 1.91 µM | TGI [29]: 48.9 µM | GI50 [30]: 4.95 µM | TGI [30]: > 100 µM | GI50 [31]: 16.6 µM | TGI [31]: 35.2 µM | GI50 [32]: 4.21 µM | TGI [32]: 20.5 µM | GI50 [33]: 67.7 µM | TGI [33]: > 100 µM | GI50 [34]: 3.83 µM | TGI [34]: > 100 µM | GI50 [35]: 3.2 µM | TGI [35]: 12.9 µM | GI50 [36]: 3.45 µM | TGI [36]: 33.7 µM | GI50 [37]: 2.48 µM | TGI [37]: 6.45 µM | GI50 [38]: 5.34 µM | TGI [38]: 20.9 µM | GI50 [39]: 4 µM | TGI [39]: 82.4 µM | GI50 [40]: 3.06 µM | TGI [40]: > 100 µM | GI50 [41]: 3.47 µM | TGI [41]: 33.3 µM | GI50 [42]: 1.92 µM | TGI [42]: 6.68 µM | GI50 [43]: 8.14 µM | TGI [43]: 32 µM | GI50 [44]: 10.1 µM | TGI [44]: 31.2 µM | GI50 [45]: 8.19 µM | TGI [45]: 35.9 µM | GI50 [46]: 3.45 µM | TGI [46]: 16.7 µM | GI50 [47]: 11.4 µM | TGI [47]: 46.5 µM | GI50 [48]: 4.03 µM | TGI [48]: 17.7 µM | GI50 [49]: 6.41 µM | TGI [49]: 31.4 µM | GI50 [50]: 1.59 µM | TGI [50]: 13.9 µM | GI50 [51]: 4.99 µM | TGI [51]: 19.7 µM | GI50 [52]: 3.34 µM | TGI [52]: > 100 µM | GI50 [53]: 2.47 µM | TGI [53]: 33.5 µM | GI50 [54]: 6.05 µM | TGI [54]: 53.9 µM | GI50 [55]: 4.68 µM | TGI [55]: 29.2 µM

C=C1C(=O)O[C@H]2[C@H]1CC/C(CNC(=O)c1cccc3ccccc13)=C\CC[C@@]1(C)O[C@@H]21
GI50 [1]: 1.31 µM | TGI [1]: 2.77 µM | GI50 [2]: 1.41 µM | TGI [2]: 3.23 µM | GI50 [3]: 5.2 µM | TGI [3]: 18.2 µM | GI50 [4]: 14.1 µM | TGI [4]: 35.3 µM | GI50 [5]: 14.1 µM | TGI [5]: 30.7 µM | GI50 [6]: 1.64 µM | TGI [6]: 3.41 µM | GI50 [7]: 17.1 µM | TGI [7]: 33.1 µM | GI50 [8]: 2.02 µM | TGI [8]: 6.4 µM | GI50 [9]: 11.9 µM | TGI [9]: 27.1 µM | GI50 [10]: 2.34 µM | TGI [10]: 8 µM | GI50 [11]: 1.57 µM | TGI [11]: 3.76 µM | GI50 [12]: 5.93 µM | TGI [12]: 19.2 µM | GI50 [13]: 6.15 µM | TGI [13]: 21.6 µM | GI50 [14]: 1.85 µM | TGI [14]: 5.11 µM | GI50 [15]: 3.67 µM | TGI [15]: 19.1 µM | GI50 [16]: 5.96 µM | TGI [16]: 20 µM | GI50 [17]: 1.36 µM | TGI [17]: 2.95 µM | GI50 [18]: 1.33 µM | TGI [18]: 3.86 µM | GI50 [19]: 1.58 µM | TGI [19]: 3.87 µM | GI50 [20]: 1.75 µM | TGI [20]: 3.53 µM | GI50 [21]: 1.98 µM | TGI [21]: 4.46 µM | GI50 [22]: 1.59 µM | TGI [22]: 4 µM | GI50 [23]: 7.23 µM | TGI [23]: 25.2 µM | GI50 [24]: 1.96 µM | TGI [24]: 5.91 µM | GI50 [25]: 1.83 µM | TGI [25]: 4.44 µM | GI50 [26]: 3.29 µM | TGI [26]: 12 µM | GI50 [28]: 1.02 µM | TGI [28]: 2.47 µM | GI50 [56]: 2.2 µM | TGI [56]: 8.79 µM | GI50 [30]: 1.19 µM | TGI [30]: 4.74 µM | GI50 [31]: 3.6 µM | TGI [31]: 14 µM | GI50 [32]: 1.53 µM | TGI [32]: 3.19 µM | GI50 [33]: 4.52 µM | TGI [33]: 46.9 µM | GI50 [34]: 1.31 µM | TGI [34]: 3.14 µM | GI50 [35]: 5.25 µM | TGI [35]: 21 µM | GI50 [36]: 1.64 µM | TGI [36]: 3.9 µM | GI50 [37]: 1.34 µM | TGI [37]: 4.38 µM | GI50 [38]: 2.43 µM | TGI [38]: 5.2 µM | GI50 [39]: 1.7 µM | TGI [39]: 5.62 µM | GI50 [41]: 1.44 µM | TGI [41]: 2.94 µM | GI50 [42]: 3 µM | TGI [42]: 11.5 µM | GI50 [43]: 29.1 µM | TGI [43]: 77.6 µM | GI50 [57]: 1.79 µM | TGI [57]: 4 µM | GI50 [44]: 1.59 µM | TGI [44]: 3.61 µM | GI50 [45]: 5.22 µM | TGI [45]: 20 µM | GI50 [46]: 1.84 µM | TGI [46]: 4.75 µM | GI50 [47]: 1.12 µM | TGI [47]: 3.04 µM | GI50 [48]: 2.78 µM | TGI [48]: 10.7 µM | GI50 [49]: 1.99 µM | TGI [49]: 6.56 µM | GI50 [50]: 2.55 µM | TGI [50]: 9.08 µM | GI50 [51]: 1.18 µM | TGI [51]: 2.6 µM | GI50 [52]: 6.22 µM | TGI [52]: 44.4 µM | GI50 [58]: 6.51 µM | TGI [58]: 24.2 µM | GI50 [53]: 0.424 µM | TGI [53]: 6.03 µM | GI50 [54]: 1.52 µM | TGI [54]: 6.3 µM | GI50 [55]: 1.03 µM | TGI [55]: 2.32 µM
